Assay results from paper PMC9268446 (Molecules, 2022).

Columns and labels:
EV-A71 3C^pro = EV-A71 3C^pro (Human enterovirus 71, UniProt Q66478); experiment: FRET assay, inhibition of enterovirus A71 3C protease; assay type: biochemical
Description: (§1) We had previously shown that enterovirus 3C proteases have a substrate-binding site featuring some similarities with coronavirus main proteases, although their S2 subsite tends to be more open. Leucine is the ideal P2-amino-acid residue in M^pro substrates, whereas most 3C^pros favor Phe in this position.
(§2) Assay samples contained 59 µL of reaction buffer (20 mM HEPES, 120 mM NaCl, 0.4 mM EDTA, 20% glycerol, 4 mM DTT (freshly added before the measurements), pH 7.0, 10 µL enzyme solution (final concentration of Coxsackievirus B3 3C^pro or enterovirus A71 3C^pro: 1.0 µM).
(§3) All reactions were monitored at 37 °C for 15 min. Measurements of enzymatic activity were performed in triplicate and the value was presented as mean ± standard deviation (SD). The initial velocity of the enzymatic reaction with compounds was calculated by linear regression for the first minute of the progression curve. […] V0 is the velocity obtained for the DMSO control (inhibitor concentration of 0 µM).
(§4) […] of inhibitors (dose-response-inhibition). The IC50 values were calculated by non-linear regression (Curve fit: Y: Bottom + (Top-Bottom)/(1 + 10^ ((X-lg IC50))) using GraphPad Prism 9.0.

HCoV-NL63 M^pro = HCoV-NL63 M^pro (Human coronavirus NL63, UniProt P0C6X5); experiment: biochemical
Chain of HCoV-NL63 M^pro (P0C6X5 2940-3242): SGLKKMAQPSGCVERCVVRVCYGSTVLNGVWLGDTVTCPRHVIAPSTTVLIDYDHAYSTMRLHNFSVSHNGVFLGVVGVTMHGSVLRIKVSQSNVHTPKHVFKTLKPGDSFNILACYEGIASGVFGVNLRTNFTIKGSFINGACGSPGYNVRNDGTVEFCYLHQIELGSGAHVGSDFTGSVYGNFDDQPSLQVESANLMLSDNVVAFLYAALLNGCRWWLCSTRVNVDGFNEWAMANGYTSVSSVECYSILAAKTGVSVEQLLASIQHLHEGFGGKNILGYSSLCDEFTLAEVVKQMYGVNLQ

CVB3 3C^pro = CVB3 3C^pro (Coxsackievirus B3, UniProt P03313); experiment: FRET assay, inhibition of Coxsackievirus B3 3C protease; assay type: biochemical
Chain of CVB3 3C^pro (P03313 1541-1723): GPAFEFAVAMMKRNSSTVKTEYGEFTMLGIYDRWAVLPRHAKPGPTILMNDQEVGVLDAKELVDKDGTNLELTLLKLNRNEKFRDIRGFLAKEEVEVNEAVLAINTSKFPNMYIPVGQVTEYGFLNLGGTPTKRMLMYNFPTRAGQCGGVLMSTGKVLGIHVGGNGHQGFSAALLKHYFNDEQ
Description: as §1, §2, §3, §4

SARS-CoV-2 M^pro = SARS-CoV-2 M^pro (Severe acute respiratory syndrome coronavirus 2, UniProt P0DTD1); experiment: FRET assay, inhibition of recombinant SARS-CoV-2 Mpro (optimized conditions); assay type: biochemical; conditions: FRET substrate Dabcyl-KTSAVLQ↓SGFRKM-E(Edans)-NH2, 50 nM enzyme, pH 7.0, 37 °C, 10 min preincubation
SARS-CoV M^pro = SARS-CoV M^pro (Severe acute respiratory syndrome coronavirus, UniProt P0C6X7); assay type: biochemical
[1] = inhibitor concentration not given, data not shown

Chain of EV-A71 3C^pro (Q66478 1549-1731): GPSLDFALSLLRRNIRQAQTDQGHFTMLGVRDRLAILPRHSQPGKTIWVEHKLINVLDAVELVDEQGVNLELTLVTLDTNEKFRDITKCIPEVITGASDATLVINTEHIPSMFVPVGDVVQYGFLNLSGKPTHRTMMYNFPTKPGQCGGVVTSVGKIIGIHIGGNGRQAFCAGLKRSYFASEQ

SMILES: CC(C)(C)NC(=O)NC(C(=O)N1CC2C(C1C(=O)NC(CC1CCNC1=O)C(=O)C(N)=O)C2(C)C)C(C)(C)C [MG-78, (1R,2S,5S)-N-((S)-4-Amino-3,4-dioxo-1-((S)-2-oxopyrrolidin-3-yl)butan2-yl)-3-((S)-2-(3-tert-butylureido)-3,3-dimethylbutanoyl)-6,6-dimethyl-3-azabicylo[3.1.0]hexane-2-carboxamide]
- IC50 (EV-A71 3C^pro; 10 µM FRET substrate Dabcyl-KEALFQ↓GPPQFE(-Edans)-NH2, 1.0 µM enzyme, 37 °C, read-out: IC50 against EV-A71 3C^pro): 6700 nM
- Factor by which IC50 versus HCoV-NL63 M^pro is larger than that for SARS-CoV-2 M^pro (HCoV-NL63 M^pro): 25
- IC50 (HCoV-NL63 M^pro): 330 nM
- IC50 (CVB3 3C^pro; 10 µM FRET substrate Dabcyl-KEALFQ↓GPPQFE(-Edans)-NH2, 1.0 µM enzyme, 37 °C, read-out: IC50 against CVB3 3C^pro): 1450 nM

SMILES: CNC(=O)C(=O)[C@H](C[C@@H]1CCNC1=O)NC(=O)[C@@H]1[C@@H]2[C@H](CN1C(=O)[C@@H](NC(=O)NC(C)(C)C)C(C)(C)C)C2(C)C [MG-131, (1R,2S,5S)-3-((S)-2-(3-tert-Butylureido)-3,3-dimethylbutanoyl) -6,6-dimethyl-N-((S)-4-(methylamino)-3,4-dioxo-1-((S)-2-oxopyrrolidin-3-yl)butan-2-yl)-3-azabicyclo[3.1.0]hexane-2-carboxamide]
- IC50 (SARS-CoV-2 M^pro): 14 ± 3 nM

SMILES: CC1(C)C2CN(C(=O)C=Cc3ccccc3)C(C(=O)NC(CC3CCNC3=O)C(=O)C(=O)NCc3ccccc3)C21 (centres unmarked) [XDL2a]
- Activity in SARS-CoV M^pro assay (SARS-CoV M^pro): completely inactive

SMILES: CC(C)(C)[C@H](NC(=O)C(F)(F)F)C(=O)N1C[C@H]2[C@@H]([C@H]1C(=O)N[C@H](C#N)C[C@@H]1CCNC1=O)C2(C)C [nirmatrelvir, reference compound]
- Inhibition rate against the 3C protease of EV-A71 (EV-A71 3C^pro; [1]): 33%
- Inhibition rate against the 3C protease of CVB3 (CVB3 3C^pro; [1]): 55%
